The values below come from US20260325685A1, “Radiopharmaceutical Compositions Targeting Carbonic Anhydrase IX and Uses Thereof” (RayzeBio, Inc., priority 2023, published 2026).

Like-named read-outs stand apart in the source and are kept apart here.

One assay has as its target T1, human CA-IX (Homo sapiens, UniProt Q16790).
T1 construct: purchased Acro CA9-H82E3
Kind of assay: Surface Plasmon Resonance (SPR) binding kinetics to recombinant human CA-IX (Biacore 8K, single-cycle kinetics, 1:1 binding model). In short, it runs like this: (§1)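 Recombinant human CA-IX or CA-XII captured on streptavidin chips (1200-1800 RU) in PBS-P+, pH 7.4. Single-cycle kinetics over 9 analyte concentrations (100-0.39 nM) with 1% DMSO, 120 s association, 1200 s dissociation, 25° C. Reference- and DMSO-corrected curves fit to 1:1 model for on/off rates.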
Background: In SPR one partner is held on a chip, and binding of the other changes the refractive index at the surface.

The target of a further assay is T2, human CA-XII (Homo sapiens, UniProt O43570).
T2 construct: purchased Creative BioMart CA12-261H
T2 sequence (O43570 25-354): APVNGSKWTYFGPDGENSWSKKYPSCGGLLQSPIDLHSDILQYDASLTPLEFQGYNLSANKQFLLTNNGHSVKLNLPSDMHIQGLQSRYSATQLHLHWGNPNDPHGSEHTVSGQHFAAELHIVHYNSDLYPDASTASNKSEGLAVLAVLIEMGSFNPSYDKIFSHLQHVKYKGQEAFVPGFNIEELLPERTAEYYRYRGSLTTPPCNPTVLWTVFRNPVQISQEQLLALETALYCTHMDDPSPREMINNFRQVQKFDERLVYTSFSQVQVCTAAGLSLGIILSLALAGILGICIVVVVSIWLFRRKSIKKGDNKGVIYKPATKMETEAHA
Kind of assay: Surface Plasmon Resonance (SPR) binding kinetics to recombinant human CA-XII (Biacore 8K, single-cycle kinetics, 1:1 binding model). In short, it runs like this:
as §1

Setting [1] is: Chelated Metal: Lu-175; SPR, 25° C., pH 7.4; read-out: CAIX KD.
Where [2] appears, read: Chelated Metal: Lu-175, 25° C., pH 7.4, read-out: CAXII KD.

For orientation: Kd means a measure of binding affinity in units of concentration. With `CC(CCC(=O)N[C@@H](CC(=O)N[C@@H](CC(=O)N1CCN(C(=O)CN2CCN(CC(=O)O)CCN(CC(=O)O)CCN(CC(=O)O)CC2)C[C@H]1C(=O)NCCn1nnc(C(=O)O)c1C12CC(C(=O)Nc3nnc(S(N)(=O)=O)s3)(C1)C2)C(=O)O)C(=O)O)(c1ccc(O)cc1)c1ccc(O)cc1.[Lu+3]` [Compound 107.61], the equilibrium dissociation constant (Kd) at human CA-IX (setting [1]) is 1 to 2.5 nM; on human CA-XII (setting [2]) it was over 10 nM.

Regarding `Cc1cc(C(=O)Nc2nnc(S(N)(=O)=O)s2)ccc1-c1cn(CCNC(=O)[C@@H]2CN(C(=O)CN3CCN(CC(=O)O)CCN(CC(=O)O)CCN(CC(=O)O)CC3)CCN2C(=O)C[C@H](NC(=O)C[C@H](NC(=O)CCC(C)(c2ccc(O)cc2)c2ccc(O)cc2)C(=O)O)C(=O)O)nn1.[Lu+3]` [Compound 107.35], the Kd on human CA-IX (setting [1]) was under 1 nM; at human CA-XII (setting [2]), over 10 nM.

On to `CC(CCC(=O)N1CCN(C(=O)CN2CCN(CC(=O)O)CCN(CC(=O)O)CCN(CC(=O)O)CC2)C[C@H]1C(=O)N[C@@H](CC(=O)N1CCOC[C@@H]1Cn1cc(C23CC(C(=O)Nc4nnc(S(N)(=O)=O)s4)(C2)C3)nn1)C(=O)O)(c1ccc(O)cc1)c1ccc(O)cc1.[Lu+3]` [Compound 118.2], for which the Kd at human CA-IX (setting [1]) is 1 to 2.5 nM; on human CA-XII (setting [2]), over 10 nM.

Turning to `NS(=O)(=O)c1nnc(NC(=O)C23CC(c4cn(CCNC(=O)[C@@H]5CN(C(=O)CN6CCN(CC(=O)O)CCN(CC(=O)O)CC6)CCN5C(=O)C[C@H](NC(=O)C[C@H](NC(=O)CC5CC6(CCC6)C5)C(=O)O)C(=O)O)nn4)(C2)C3)s1.[Cu+2]` [Compound 126.5], the Kd on human CA-IX (Chelated Metal: Cu (cold); SPR, 25° C., pH 7.4; read-out: CAIX KD) was under 1 nM; on human CA-XII (Chelated Metal: Cu (cold), 25° C., pH 7.4, read-out: CAXII KD), 1 to 2.5 nM.

In the case of `NCCNC(=O)c1cnc(N[C@@H](CC(=O)N2CCN(C(=O)CN3CCN(CC(=O)O)CCN(CC(=O)O)CCN(CC(=O)O)CC3)C[C@H]2C(=O)NCCn2cc(C34CC(C(=O)Nc5nnc(S(N)(=O)=O)s5)(C3)C4)nn2)C(=O)O)nc1.[Lu+3]` [Compound 111.12], the Kd on human CA-IX (setting [1]) is 2.5 to 10 nM; at human CA-XII (setting [2]) it was over 10 nM.

As to `NS(=O)(=O)c1nnc(NC(=O)C23CC(c4cn(CCNC(=O)[C@H]5CN(C(=O)CN6CCN(CC(=O)O)CCN(CC(=O)O)CCN(CC(=O)O)CC6)CCN5C(=O)[C@@H]5COCCN5C(=O)Cc5n[nH]c6ccccc56)nn4)(C2)C3)s1.[Lu+3]` [Compound 107.18], the equilibrium dissociation constant (Kd) was 2.5 to 10 nM at human CA-IX (setting [1]) and over 10 nM on human CA-XII (setting [2]).

Regarding `NS(=O)(=O)c1nnc(NC(=O)C23CCC(c4cn(CCNC(=O)[C@@H]5CN(C(=O)CN6CCN(CC(=O)O)CCN(CC(=O)O)CCN(CC(=O)O)CC6)CCN5C(=O)CC[C@H](NC(=O)C[C@H](NC(=O)CCCc5ccc(O)cc5)C(=O)O)C(=O)O)nn4)(CC2)CC3)s1.[Lu+3]` [Compound 109.42], the dissociation constant Kd on human CA-IX (setting [1]) and at human CA-XII (setting [2]) was under 1 nM each time.

`CC(CCC(=O)N1CCC[C@@H]1C(=O)N[C@@H](CC(=O)N1CCN(C(=O)CN2CCN(CC(=O)O)CCN(CC(=O)O)CCN(CC(=O)O)CC2)C[C@@H]1C(=O)NCCn1cc(C23CC(C(=O)Nc4nnc(S(N)(=O)=O)s4)(C2)C3)nn1)C(=O)O)(c1ccc(O)cc1)c1ccc(O)cc1.[Lu+3]` [Compound 108.5]: the figures for the dissociation constant (Kd) on human CA-IX (setting [1]) and on human CA-XII (setting [2]) were 2.5 to 10 nM and over 10 nM, respectively.

`NS(=O)(=O)c1nnc(NC(=O)C23CC(c4cn(CCNC(=O)[C@@H]5CN(C(=O)CN6CCN(CC(=O)O)CCN(CC(=O)O)CCN(CC(=O)O)CC6)CCN5C(=O)C[C@H](NC(=O)C[C@H](NC(=O)CCC56CCC(CC5)C6)C(=O)O)C(=O)O)nn4)(C2)C3)s1.[Lu+3]` [Compound 109.9]: the Kd is under 1 nM at human CA-IX (setting [1]) and 1 to 2.5 nM at human CA-XII (setting [2]).

With `NS(=O)(=O)c1nnc(NC(=O)C23CCC(c4cn(CCNC(=O)[C@@H]5CN(C(=O)CN6CCN(CC(=O)O)CCN(CC(=O)O)CCN(CC(=O)O)CC6)CCN5C(=O)CNC(=O)C5(C(=O)O)CCN(C(=O)CCCc6ccc(I)cc6)CC5)nn4)(CC2)CC3)s1.[Lu+3]` [Compound 112.2], the Kd on human CA-IX (setting [1]) is under 1 nM; at human CA-XII (setting [2]), 2.5 to 10 nM.

`NS(=O)(=O)c1nnc(NC(=O)C23CC(c4cn(CCNC(=O)[C@@H]5CN(C(=O)CN6CCN(CC(=O)O)CCN(CC(=O)O)CCN(CC(=O)O)CC6)CCN5C(=O)CNC(=O)C5(C(=O)O)CCN(C(=O)CCCCc6ccc(I)cc6)CC5)nn4)(C2)C3)s1.[Lu+3]` [Compound 112.19]: the Kd on human CA-IX (setting [1]) is under 1 nM; at human CA-XII (setting [2]), over 10 nM.

In the case of `NS(=O)(=O)c1c(F)c(F)c(S(=O)(=O)CCOCc2cn(CCCNC(=O)[C@@H]3CN(C(=O)CN4CCN(CC(=O)O)CCN(CC(=O)O)CCN(CC(=O)O)CC4)CCN3C(=O)CNC(=O)C3(C(=O)O)CCN(C(=O)CCCCc4ccc(O)cc4)CC3)nn2)c(NC2CCCCCCC2)c1F.[Lu+3]` [Compound 107.45], the results for the dissociation constant (Kd) at human CA-IX (setting [1]) and on human CA-XII (setting [2]) were under 1 nM and 2.5 to 10 nM, respectively.

Take `CC(CCCC(=O)N1CCC(C(N)=O)(C(=O)NCC(=O)N2CCN(C(=O)CN3CCN(CC(=O)O)CCN(CC(=O)O)CCN(CC(=O)O)CC3)C[C@@H]2C(=O)NCCn2nnc(C34CC(C(=O)Nc5nnc(S(N)(=O)=O)s5)(C3)C4)c2C(=O)O)CC1)(c1ccc(O)cc1)c1ccc(O)cc1.[Lu+3]` [Compound 107.59]: the Kd is under 1 nM on human CA-IX (setting [1]) and over 10 nM on human CA-XII (setting [2]).

As to `CC(CCCC(=O)N1CCC(C(N)=O)(C(=O)NCC(=O)N2CCN(C(=O)CCOCCOCCCC(=O)CN3CCN(CC(=O)O)CCN(CC(=O)O)CCN(CC(=O)O)CC3)C[C@H]2C(=O)NCCn2cc(C34CC(C(=O)Nc5nnc(S(N)(=O)=O)s5)(C3)C4)nn2)CC1)(c1ccc(O)cc1)c1ccc(O)cc1` [Compound 129.4], the dissociation constant Kd on human CA-IX (Chelated Metal: None; SPR, 25° C., pH 7.4; read-out: CAIX KD) is under 1 nM; at human CA-XII (Chelated Metal: None, 25° C., pH 7.4, read-out: CAXII KD), over 10 nM. For the same compound, on human CA-IX (KD ratio CAXII/CAIX; Chelated Metal: None), the “Ratio (CAXII/CAIX)” value is “**** (50 < ****)”.

As to `NS(=O)(=O)c1nnc(NC(=O)C23CC(c4cn(CCNC(=O)[C@@H]5CN(C(=O)CN6CCN(CC(=O)O)CCN(CC(=O)O)CCN(CC(=O)O)CC6)CCN5C(=O)C[C@H](Nc5ncc(C(=O)NCc6coc(C(F)(F)F)n6)cn5)C(=O)O)nn4)(C2)C3)s1.[Lu+3]` [Compound 111.5], the Kd at human CA-IX (setting [1]) is 2.5 to 10 nM; on human CA-XII (setting [2]), over 10 nM.

Regarding `NS(=O)(=O)c1nnc(NC(=O)C23CC(c4cn(CCNC(=O)[C@@H]5CN(C(=O)CN6CCN(CC(=O)O)CCN(CC(=O)O)CCN(CC(=O)O)CC6)CCN5C(=O)C[C@H](NC(=O)C[C@H](NCC5CC5)C(=O)O)C(=O)O)nn4)(C2)C3)s1.[Lu+3]` [Compound 109.29], the results for the dissociation constant Kd at human CA-IX (setting [1]) and at human CA-XII (setting [2]) were 2.5 to 10 nM and over 10 nM, respectively.

In the case of `CC(CCC(=O)N[C@@H](CC(=O)N[C@@H](CC(=O)N1CCN(C(=O)OCCOCCNC(=O)CN2CCN(CC(=O)O)CCN(CC(=O)O)CCN(CC(=O)O)CC2)C[C@@H]1CCCCn1cc(CCCC(=O)Nc2nnc(S(N)(=O)=O)s2)nn1)C(=O)O)C(=O)O)(c1ccc(O)cc1)c1ccc(O)cc1.[Lu+3]` [Compound 124], the Kd is 2.5 to 10 nM on human CA-IX (read-out: CAIX KD; Chelated Metal: Lu-175; SPR, 25° C., pH 7.4) and 2.5 to 10 nM on human CA-XII (read-out: CAXII KD, Chelated Metal: Lu-175, 25° C., pH 7.4).

On to `CC(CCC(=O)N[C@@H](CC(=O)N[C@@H](CC(=O)NC1(C(=O)NCCOCCOCCNC(=O)CN2CCN(CC(=O)O)CCN(CC(=O)O)CCN(CC(=O)O)CC2)CN(C(=O)Cn2cc(CCCCC(=O)Nc3nnc(S(N)(=O)=O)s3)nn2)C1)C(=O)O)C(=O)O)(c1ccc(O)cc1)c1ccc(O)cc1.[Lu+3]` [Compound 103.4], for which the equilibrium dissociation constant (Kd) at human CA-IX (setting [1]) and on human CA-XII (setting [2]) was 2.5 to 10 nM in each case.

`CC(CCC(=O)N[C@@H](CC(=O)N[C@@H](CC(=O)N1CCN(C(=O)CN2CCN(CC(=O)O)CCN(CC(=O)O)CCN(CC(=O)O)CC2)C[C@@H]1C(=O)NCCn1cc(C23CC(C(=O)Nc4nnc(S(N)(=O)=O)s4)(C2)C3)nn1)C(=O)O)C(=O)O)(c1ccc(O)cc1)c1ccc(O)cc1.[Lu+3]` [Compound 107.3]: the values for the dissociation constant Kd on human CA-IX (setting [1]) and on human CA-XII (setting [2]) were 1 to 2.5 nM and over 10 nM, respectively.
